# Reference: PMC4681141, “Antiplasmodial activity, in vivo pharmacokinetics and anti-malarial efficacy evaluation of hydroxypyridinone hybrids in a mouse model” (Malaria Journal, 2015)
# Like-named read-outs stand apart in the source and are kept apart here.
# Legend:
# [1] = test system: Plasmodium berghei (ANKA strain); assay: In vivo anti-malarial efficacy, Peters' 4-day test; parameters: species or system C57BL/6 mice; settings: for % reduction of parasitemia Day 9: vs placebo
# Method: The chloroquine-sensitive Plasmodium berghei (ANKA strain) was used to assess in vivo anti-malarial efficacy of the test compounds. The parasites were maintained in a C57BL/6 mouse by inoculation with 250 µl of a 1:1 (v/v) suspension of erythrocytes infected with P. berghei in phosphate buffered saline (PBS). On the day of the experiment the host mouse was anaesthetized intraperitoneally with a mixture of ketamine (120 mg/kg) and xylazine (16 mg/kg). Whole blood from the host mouse was drawn by cardiac puncture into a Vacuette® heparin tube and a suspension of P. berghei parasitized erythrocytes (1 × 10^7) in PBS was prepared and the test mice were infected with 200 µl of this suspension intraperitoneally.
# Evaluation of the curative potential of the test compounds was performed using Peters’ 4-day test as described. The mice were dosed orally at 20 and 40 mg/kg and intravenously at 4 and 8 mg/kg 2 h post-infection and for three consecutive days (D0 to D3). On the first day (D0), blood samples were collected serially from each mouse at 0.5, 1, 3, and 7 h post-dosing in order to provide quantitative measurements of drug exposure which is needed for the sound interpretation of the efficacy of the anti-malarials. […] The mice were also dosed orally with PBS as a control. The parasitaemia was determined from the […] (D4) by preparing thin blood films from the tail of each mouse and the smears were fixed with methanol and stained with Giemsa. This was repeated every 2–3 days to monitor the efficacy of the test compounds. The formula used to calculate % parasitaemia and % reduction is described below, respectively. The data for % parasitaemia and % reduction of parasitaemia is presented in Table 4. %Parasitaemia =No.ofparasitizedRBCoutof500erythrocytes/Totalno.ofRBCcounted×100 %Reduction =Parasitamiaofplacebo-Parasitamiaoftestcompound/Parasitamiaofplacebo×100
# [2] = parameters: method as in earlier work; settings: mice; ref 25 (Salako); cited from earlier work
# [3] = test system: P. falciparum 3D7; assay: In vitro antiplasmodial pLDH assay, chloroquine-sensitive strain 3D7; assay type: cell-based; settings: Plasmodium falciparum, read-out: IC50 against 3D7
# Method: (§1) The parasites were continuously cultured in vitro according to the method described by Trager and Jensen but with modifications. The cultures were maintained at 37 °C in O-positive (O^+) human erythrocytes in complete culture medium, which contained RPMI 1640 (Gibco-BRL Laboratories) growth medium supplemented with 25 mM 4-(2-hydroxyethyl)piperazine-1-ethanesulfonic acid (HEPES) (Sigma-Aldrich Chemical Company) buffer, 22 mM glucose (Sigma), 5 g/l albumax (Gibco-BRL Laboratories), 25 mM sodium carbonate (Sigma) and 0.3 mM hypoxanthine (Sigma). In order to control microbial contamination […] gentamicin (Sigma) was added to the culture medium, and to obtain a loosely synchronous ring stage, 5 % sterile aqueous D-sorbitol (Sigma) was used. The antiplasmodial assay was initiated with the parasites in the trophozoite stage and with a parasitaemia and haematocrit of 2 %.
# (§2) Non-parasitized erythrocytes were used as a negative control and parasitized erythrocytes, without any test compound, were used as positive control. A full day dose–response was performed for all compounds to determine the concentration inhibiting 50 % of parasite growth (IC50 value). The plates were incubated for 48 h at 37 °C in a gassing chamber containing a mixture of 5 % CO2, 3 % O2 and 92 % […]. In order to quantify parasite viability and to determine the effect of the compounds on the parasite, a parasite lactate dehydrogenase (pLDH) assay was used as described by Makler et al., but with modifications.
# [4] = test system: P. falciparum K1; assay: In vitro antiplasmodial pLDH assay, chloroquine-resistant strain K1; assay type: cell-based; settings: Plasmodium falciparum, read-out: IC50 against K1
# Method: as §1, §2
# [5] = test system: P. falciparum D10; assay: In vitro antiplasmodial pLDH assay, chloroquine-sensitive strain D10; assay type: cell-based; settings: Plasmodium falciparum, read-out: IC50 against D10
# Method: as §1, §2
# [6] = test system: P. falciparum Dd2; assay: In vitro antiplasmodial pLDH assay, chloroquine-resistant strain Dd2; assay type: cell-based; settings: Plasmodium falciparum, read-out: IC50 against Dd2
# Method: as §1, §2
# [7] = Drug exposure in P. berghei-infected mice (blood concentrations on D0); assay type: in vivo, C57BL/6 mice; settings: oral 20 and 40 mg/kg
# [8] = test system: P. falciparum chloroquine-sensitive and -resistant strains; assay type: cell-based, Plasmodium falciparum; settings: highest CQR IC50 value / lowest CQS IC50 value
# Source text: This value provides a quantitative measurement of the antiplasmodial activity against CQR strains relative to that against CQS strains. The higher the RI value, the higher the level of resistance.
# [9] = Pharmacokinetic study in uninfected C57BL/6 mice (LC-MS/MS of blood); assay type: in vivo; settings: for clearance / Vd: iv; for Vd: read-out: Vss; for AUC(0-inf) / half-life: mouse; for blood levels after oral dosing: oral 20 mg/kg, uninfected mice
# Method: A comprehensive pharmacokinetic (PK) study of compound 1 and 2 was performed on 10-week old male and female C57BL/6 mice (20–30 g) obtained from the University of Cape Town Medical School Animal Unit. The mice were housed in ventilated cages at room temperature (approximately 22 °C) with constant supply of food and water and were monitored twice daily. The study was authorized by the Faculty of Health Science Animal Research Ethics Committee before commencement: Reference No. 012/020. All the work was performed according to the guidelines established by Austin et al.. […] In each experiment a group of five animals were dosed orally (10 ml/kg) at 20 mg/kg and intravenously (5 ml/kg) via the dorsal penile vein at 4 mg/kg under anaesthesia. For oral dosage, a gavage needle was used for the administration of test compounds directly into the lower oesophagus or stomach. […] Lithium heparin-coated MiniCollect® Plasma Tubes (Lasec, South Africa) were used to collect the blood samples. The collected blood samples were placed on ice immediately after sampling, and were frozen at −80 °C until analysis. The blood samples stored at −80 °C were thawed at room temperature and then mixed by vortex to ensure homogeneity. Twenty µl of blood was mixed with 50 µl Milli-Q water (Millipore, USA) and 150 µl acetonitrile (Merck). The mixture was vortexed for 15 s, sonicated for 10 min and centrifuged at 13,000g for 5 min. The supernatant was transferred to a flat-bottomed glass insert and placed in a glass vial and placed in the autosampler for analysis. A liquid chromatography–mass spectrometry (LC/MS/MS) system was employed for the quantification of the compounds in mouse blood. The LC system employed was an ultra-fast liquid chromatography (UFLC) system (Shimadzu) and the separation of the compounds was performed on a Phenomenex, Luna 5 μm PFP (2), 100 Å, 50 mm × 2 mm analytical column. The mobile phase A consisted of 0.1 % formic acid in water (v/v) and mobile phase B consisted of acetonitrile. The flow rate was set at 500 µl/min and the temperature of the column was maintained at 40 °C. […] The detection of the compounds was performed on an AB Sciex 3200 Q-Trap mass spectrometer which was operated at unit resolution in the multiple reaction monitoring (MRM) mode. The calibration range for all the compounds was between 7.8 and 1000 ng/ml and the accuracy (% Nom) for the calibration curves was between 90.3 and 104.0 %. […] Non-compartmental analysis was performed on each individual set of data using PK Solutions 2.0 Pharmacokinetic Analysis Software (Summit Research Services, Montrose, USA). The following PK parameters were calculated: apparent terminal half-life [t½ (min)], total exposure [AUC0–α (µM min)], volume of distribution (l/kg) and plasma clearance [CL (l/min/kg)].
# [10] = Toxicity observed in dosed mice; assay type: in vivo; settings: dosed orally and intravenously
# Method: They both presented poor PK properties following oral administration. However, the LC–MS/MS assay only detected the parent compound and no assays were conducted to measure or identify any possible metabolites. The decision to perform efficacy studies was based on the possibility that compounds 1 and 2 may have high first pass effect which may cause low bioavailability. After the infected mice were dosed orally and intravenously with compound 1 and 2, the blood concentrations were measured in P. berghei-infected mice at different time intervals to measure the exposure of the infected mice to the drug. […] High toxicity was also detected when dosed orally and intravenously. The PK studies were only conducted for 9 h, and therefore the symptoms of toxicity were not severe. However, with efficacy studies the mice are dosed every day for 4 days, and this might cause distress to the mice because the toxic effect of the drug will be more severe. The efficacy study for compound 2 is not reported in this paper.
# [11] = Oral 10 mg/kg/day, 4 days (reference drug)
# [12] = chloroquine-sensitive strain 3D7, 48 h, pLDH, mean of three independent experiments
# [13] = chloroquine-resistant strain K1, 48 h, pLDH, mean of three independent experiments
# [14] = chloroquine-sensitive strain D10, 48 h, pLDH, mean of three independent experiments
# [15] = chloroquine-resistant strain Dd2, 48 h, pLDH, mean of three independent experiments
# [16] = both sexes, C57BL/6, mouse, whole blood, 4 mg/kg, intravenous 4 mg/kg, uninfected C57BL/6 mice, blood
# [17] = both sexes, whole blood, intravenous 4 mg/kg, uninfected C57BL/6 mice, blood
# [18] = intravenous 4 mg/kg, uninfected C57BL/6 mice, blood, 4 mg/kg
smiles,measurement,setting,value
"CCN(CC)CCCC(C)Nc1ccnc2cc(Cl)ccc12 (stereo not drawn) [Chloroquine, reference compound]",Average % parasitemia Day 4,[1]; [11],0%
same,Average % parasitemia Day 6,[1]; [11],0%
same,Average % parasitemia Day 9,[1]; [11],2 ± 1.6%
same,% reduction of parasitemia Day 9,[1]; [11],92.0 ± 0.4%
same,half-life,[2],7 h
same,oral bioavailability,[2],79–90%
same,IC50,"[3]; 3D7, 48 h",19 nM
same,IC50,"[4]; K1, 48 h",279 ± 2 nM
same,IC50,"[5]; D10, 48 h",23 nM
same,IC50,"[6]; DD2, 48 h",180 ± 10 nM
O=c1cc(CNCCCCCCNc2ccnc3cc(Cl)ccc23)n(C2CC2)cc1OCc1ccccc1 [Compound 1],Average % parasitemia Day 4,"[1]; IV 4 mg/kg/day, 4 days",0.4 ± 0.4%
same,Average % parasitemia Day 6,"[1]; IV 4 mg/kg/day, 4 days",1.8 ± 1.4%
same,Average % parasitemia Day 9,"[1]; IV 4 mg/kg/day, 4 days",8.1 ± 5%
same,% reduction of parasitemia Day 9,"[1]; IV 4 mg/kg/day, 4 days, 4 mg/kg/day",61.9 ± 26%
same,% reduction of parasitemia Day 9,"[1]; IV 4 mg/kg/day, 4 days, listed as compound 1, 4 mg/kg/day",62%
same,Average % parasitemia Day 4,"[1]; IV 8 mg/kg/day, 4 days",0%
same,Average % parasitemia Day 6,"[1]; IV 8 mg/kg/day, 4 days",0.9 ± 0.9%
same,Average % parasitemia Day 9,"[1]; IV 8 mg/kg/day, 4 days",5.1 ± 1.7%
same,% reduction of parasitemia Day 9,"[1]; IV 8 mg/kg/day, 4 days, 8 mg/kg/day",82.9 ± 2.5%
same,% reduction of parasitemia Day 9,"[1]; IV 8 mg/kg/day, 4 days, listed as compound 1, 8 mg/kg/day",83%
same,Average % parasitemia Day 4,"[1]; Oral 20 mg/kg/day, 4 days",5.3 ± 3.9%
same,Average % parasitemia Day 6,"[1]; Oral 20 mg/kg/day, 4 days",22.7 ± 10%
same,Average % parasitemia Day 9,"[1]; Oral 20 mg/kg/day, 4 days",24.2 ± 5.6%
same,% reduction of parasitemia Day 9,"[1]; Oral 20 mg/kg/day, 4 days",3.7 ± 5.6%
same,Average % parasitemia Day 4,"[1]; Oral 40 mg/kg/day, 4 days",5.9 ± 2%
same,Average % parasitemia Day 6,"[1]; Oral 40 mg/kg/day, 4 days",10.7 ± 5%
same,Average % parasitemia Day 9,"[1]; Oral 40 mg/kg/day, 4 days",48.6 ± 12%
same,% reduction of parasitemia Day 9,"[1]; Oral 40 mg/kg/day, 4 days",−93.8 ± 49.3%
same,parasitaemia on day 4 in mice dosed orally,"[1]; oral groups (20 and 40 mg/kg/day), day 4",~5%
same,blood concentration levels in infected mice dosed orally,[7],below the detection level
same,IC50,[3]; [12],64 ± 20 nM
same,RI (resistance index),[8],10.7
same,IC50,[4]; [13],505 ± 100 nM
same,IC50,[5]; [14],47 ± 10 nM
same,IC50,[6]; [15],463 ± 120 nM
same,clearance,[9]; [16],28 mL/min/kg
same,Vd,[9]; [16],20 L/kg
same,concentration at 9 h,"[9]; both sexes, C57BL/6, mouse, whole blood, intravenous 4 mg/kg, 9 h post-dosing, read-out: blood level after 9 h",160 nM
same,AUC(0-inf),[9]; [17],3.27 µM·h
same,half-life,[9]; [17],4.3 ± 1.02 h
same,CL,[9]; [18],27.6 ± 8 mL/min/kg
same,Vss,[9]; [18],20.1 ± 6 L/kg
same,oral bioavailability,"[9]; mice, oral dosing, in words",poor oral bioavailability
same,blood levels after oral dosing,[9],below the LOQ
CCc1c(OCc2ccccc2)c(=O)ccn1CCCCCCNc1ccnc2cc(Cl)ccc12 [Compound 2],toxicity,[10],High toxicity
same,blood concentration levels in infected mice dosed orally,[7],below the detection level
same,IC50,[3]; [12],41 ± 20 nM
same,RI (resistance index),[8],2.2
same,IC50,[4]; [13],89 ± 10 nM
same,IC50,[5]; [14],122 ± 30 nM
same,IC50,[6]; [15],76 ± 10 nM
same,clearance,[9]; [16],366 ± 46.6 mL/min/kg
same,Vd,[9]; [16],154.1 ± 1 L/kg
same,concentration at 2 h,"[9]; both sexes, C57BL/6, mouse, whole blood, intravenous 4 mg/kg, 2 h post-dosing, read-out: blood level after 2 h",30 nM
same,AUC(0-inf),[9]; [17],0.42 µM·h
same,half-life,[9]; [17],0.7 ± 0.2 h
same,blood levels after oral dosing,[9],below the LOQ
